Data on one compound can be found in US9617225B2 (VIROSTATICS SRL, priority 2012, dated 2017).

Some results are limits rather than exact numbers.

Data set [1] addresses human CDK9/CyclinT kinase complex (Homo sapiens (Human), UniProt P50750). The data set is described as follows: In Vitro CDK9/CyclinT Assay (IMAP fluorescent polarization). Type of data set: biochemical. The following applies: Table 1. A digest of the protocol: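 Phosphorylation of 400 nM TAMRA-Rbtide (15-mer retinoblastoma-derived peptide) by 5 nM CDK9/CyclinT with 12 μM ATP (=Kmapp) in 20 mM MOPS pH 7, 1 mM DTT, 10 mM MgCl2, 0.01% Tween 20. Reaction run 1 hour at room temperature, stopped with IMAP beads; read by fluorescence polarization.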

Data set [2] has as its system laboratory strain of HIV-1. The data set is described as follows: Antiviral Activity Against HIV (AV), p24 in infected activated primary T cells. Type of data set: cell-based. The following applies: Human immunodeficiency virus 1, T-cell, read-out: AV50 (μM).
For data set [3], the system named is Primary T cells. The data set is described as follows: Antiproliferative Activity (AP), mitotic index by flow cytometry. Type of data set: cell-based. The following applies: T-cell, read-out: AP50 (μM). The method, then:
Antiproliferative Activity (AP)
Primary T cells are cultured and exposed to different concentrations of the test compounds. Cell proliferation is analysed by measuring mitotic index (ie the number of cell divisions a population of cells undergoes) through flow cytometry based techniques. Mitotic index is expressed as percentage of untreated control. Inhibition of cell proliferation (AP) is then calculated (AP=100 minus % mitotic index compared to control, AP of control=0%). Inhibitory concentration 50% for antiproliferative capacity (AP50) is calculated.

In data set [4] the test system is Primary T cells. The data set is described as follows: Cytotoxicity, viability by flow cytometry. Type of data set: cell-based. The method, then: Primary T cells are cultured and treated with different concentrations of the test compound. Viability is analysed by measuring through flow cytometry based techniques the percentage of viable cells, compared to untreated control=100%).

human CDK9/CyclinT kinase complex, sequence (P50750 whole entry): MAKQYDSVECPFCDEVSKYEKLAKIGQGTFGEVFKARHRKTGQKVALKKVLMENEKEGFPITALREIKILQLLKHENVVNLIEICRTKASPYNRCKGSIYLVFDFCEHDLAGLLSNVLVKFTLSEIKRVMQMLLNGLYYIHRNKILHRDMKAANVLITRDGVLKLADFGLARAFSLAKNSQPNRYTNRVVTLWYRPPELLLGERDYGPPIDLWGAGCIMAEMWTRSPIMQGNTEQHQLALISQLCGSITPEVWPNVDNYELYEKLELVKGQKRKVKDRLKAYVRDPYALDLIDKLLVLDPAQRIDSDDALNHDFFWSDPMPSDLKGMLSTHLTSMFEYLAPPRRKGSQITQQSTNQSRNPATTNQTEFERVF
human CDK9/CyclinT kinase complex, sequence (O60563 whole entry partner): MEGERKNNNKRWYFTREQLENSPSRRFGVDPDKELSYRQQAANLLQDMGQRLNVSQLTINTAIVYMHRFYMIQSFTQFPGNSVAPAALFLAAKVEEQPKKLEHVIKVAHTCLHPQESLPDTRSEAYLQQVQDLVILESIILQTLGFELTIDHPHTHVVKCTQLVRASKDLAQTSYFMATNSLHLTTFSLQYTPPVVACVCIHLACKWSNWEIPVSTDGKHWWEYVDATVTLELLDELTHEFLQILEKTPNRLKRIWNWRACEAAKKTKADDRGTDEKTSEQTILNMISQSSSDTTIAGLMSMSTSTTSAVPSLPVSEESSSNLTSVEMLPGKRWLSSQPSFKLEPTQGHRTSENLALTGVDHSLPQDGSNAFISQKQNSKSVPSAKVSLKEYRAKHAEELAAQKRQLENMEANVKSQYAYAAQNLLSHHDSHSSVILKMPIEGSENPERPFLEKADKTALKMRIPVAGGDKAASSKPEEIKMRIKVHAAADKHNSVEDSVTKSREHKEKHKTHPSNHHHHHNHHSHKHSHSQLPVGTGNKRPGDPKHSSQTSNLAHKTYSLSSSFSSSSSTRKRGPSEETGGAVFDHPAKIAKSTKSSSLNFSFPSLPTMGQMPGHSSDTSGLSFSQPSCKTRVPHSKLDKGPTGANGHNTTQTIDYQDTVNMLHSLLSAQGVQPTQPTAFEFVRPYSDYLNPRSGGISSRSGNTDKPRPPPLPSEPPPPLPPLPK

On to `CNCc1cc(Nc2cc(-c3ccccc3OC)ncn2)ccc1OC` [Example 37, N-(4-Methoxy-3-((methylamino)methyl)phenyl)-6-(2-methoxyphenyl)pyrimidin-4-amine], for which the IC50 was less than 0.1 µM in data set [1], greater than 1.5 µM in data set [2] and 2 µM with Primary T cells [3]. Moreover, the “TD50” value with Primary T cells [4] came to 2 µM.
